Source: ChEMBL document CHEMBL3351589, “Novel chalcone derivatives as hypoxia-inducible factor (HIF)-1 inhibitor: synthesis, anti-invasive and anti-angiogenic properties” (Eur J Med Chem, 2015)
Active and inactive are the calls of the source. No cut-off for these calls is given here.

Columns and labels:
[1] = Reduction of hypoxia-induced HIF-1 alpha expression in human Hep3B cells after 48 hrs by Western blotting analysis; type: functional, cell-based; details: Hep 3B2
[2] = Reduction of hypoxia-induced HIF-1 beta expression in human Hep3B cells after 48 hrs by Western blotting analysis; type: functional, cell-based; details: Hep 3B2
[3] = Reduction of hypoxia-induced VEGF expression in human Hep3B cells after 48 hrs by Western blotting analysis; type: functional, cell-based; details: Hep 3B2
[4] = Reduction of hypoxia-induced VEGF mRNA expression in human Hep3B cells after 48 hrs by RT-PCR analysis; type: functional, cell-based; details: Hep 3B2
[5] = Cytotoxicity against human Hep3B cells at >20 uM after 12 hrs by MTT assay; type: cell-based; details: hep 3b2, 12 h
[6] = system: HUVEC; experiment: Cytotoxicity against HUVEC at >20 uM after 12 hrs by MTT assay; type: cell-based; details: human
[7] = system: Hep 3B2; experiment: Antimigratory activity in human Hep3B cells assessed as inhibition of VEGF-induced migration at 0.8 to 20 uM by real time cell analysis; type: functional, cell-based
[8] = system: HUVEC; experiment: Antimigratory activity in HUVEC assessed as inhibition of VEGF-induced migration at 0.8 to 20 uM by real time cell analysis; type: functional, cell-based; details: Homo sapiens
[9] = system: Hep 3B2; experiment: Antiinvasive activity in human Hep3B cells assessed as inhibition of VEGF-induced invasion after 30 mins by transwell assay; type: functional, cell-based
[10] = system: HUVEC; experiment: Antiinvasive activity in HUVEC assessed as inhibition of VEGF-induced invasion after 30 mins by transwell assay; type: functional, cell-based; details: Homo sapiens
[11] = system: HUVEC; experiment: Antiangiogenic activity in HUVEC assessed as inhibition of VEGF-induced tube formation after 30 mins by matrigel assay; type: functional, cell-based; details: Homo sapiens
[12] = system: Hep 3B2; experiment: Antitumor activity against human Hep3B cells xenografted in iv dosed Balb/c nude mouse assessed as inhibition of tumor growth after 11 days; type: functional, organism-based
[13] = system: Mus musculus; experiment: Toxicity in Balb/c nude mouse xenografted with human Hep3B cells assessed as change in body weight at 2.5 to 5 mg/kg, iv; type: organism-based, Hep 3B2; set-up: dose 2.5-5 mg/kg, route intravenous; details: in vivo
[14] = system: Hep 3B2; experiment: Antitumor activity against human Hep3B cells xenografted in Balb/c nude mouse assessed as reduction in microvessel density at 2.5 to 5 mg/kg, iv by immunohistochemical analysis; type: functional, organism-based
[15] = system: Hep 3B2; experiment: Antitumor activity against human Hep3B cells xenografted in Balb/c nude mouse assessed as reduction in MMP-2 expression at 2.5 to 5 mg/kg, iv by immunohistochemical analysis; type: functional, organism-based
[16] = Acute toxicity in iv dosed Swiss mouse; type: organism-based; details: in vivo
[17] = Acute toxicity in Swiss mouse assessed as mortality rate at 100 mg/kg, iv after 14 days relative to control; type: organism-based; set-up: dose 100 mg/kg, route intravenous; details: in vivo
[18] = Acute toxicity in Swiss mouse assessed as mortality rate at 200 mg/kg, iv after 14 days relative to control; type: organism-based; set-up: dose 200 mg/kg, route intravenous; details: in vivo
[19] = Acute toxicity in Swiss mouse assessed as mortality rate at 300 mg/kg, iv after 14 days relative to control; type: organism-based; set-up: dose 300 mg/kg, route intravenous; details: in vivo
[20] = system: Mus musculus; experiment: Acute toxicity in Swiss mouse assessed as structural abnormality in kidney at 300 mg/kg, iv after 14 days by histological analysis relative to control; type: organism-based; set-up: dose 300 mg/kg, route intravenous; details: in vivo, 336 h
[21] = system: Mus musculus; experiment: Acute toxicity in Swiss mouse assessed as structural abnormality in lung at 300 mg/kg, iv after 14 days by histological analysis relative to control; type: organism-based; set-up: dose 300 mg/kg, route intravenous; details: in vivo, 336 h
[22] = Reduction of hypoxia-induced HIF-1 alpha expression in human Hep3B cells at 10 uM after 48 hrs by Western blotting analysis; type: functional, cell-based; details: Hep 3B2
[23] = Reduction of hypoxia-induced HIF-1 beta expression in human Hep3B cells at 10 uM after 48 hrs by Western blotting analysis; type: functional, cell-based; details: Hep 3B2

COc1ccc(/C=C/C(=O)c2ccc3c(c2O)C=CC(C)(C)O3)cc1O
Activity [1]: Dose-dependent effect
Activity [2]: Dose-dependent effect
Activity [3]: Dose-dependent effect
Activity [4]: Dose-dependent effect
Activity [5]: Non-toxic
Activity [6]: Non-toxic
Activity [7]: Active
Activity [8]: Active
Activity [9]: Dose-dependent effect
Activity [10]: Dose-dependent effect
inhibition [11]: Dose-dependent effect
inhibition [12]: Dose-dependent effect
Activity [13]: Non-toxic
Activity [14]: Active
Activity [15]: Active
MTD [16]: 22 mg/kg
mortality at 336 h [17]: 0%
mortality at 336 h [18]: 0%
mortality at 336 h [19]: 16.7%
Activity [20]: Non-toxic
Activity [21]: Non-toxic

CC[C@@]1(O)C(=O)OCc2c1cc1n(c2=O)Cc2cc3c(CN(C)C)c(O)ccc3nc2-1
Activity [22]: Active
Activity [23]: Active
